Experimental data as given in PMC3060082 (Journal of medicinal chemistry, 2010).

Key:
[1] = test system: NAADP receptor; experiment: Ca2+ release from Ca2+ loaded sea urchin egg homogenates; type: biochemical, sea urchin (Strongylocentrotus purpuratus); conditions: for Fold increase in EC50: relative to NAADP (1); for potency for Ca2+ release compared to NAADP (fold less potent): text summary of concentration response curves, Figure 2 / Table 3; for concentration as low as which calcium-ion release is induced: Figure 1 traces; for amount of calcium release at saturating concentrations: compared with NAADP
[2] = test system: NAADP receptor; experiment: Competition ligand binding with [32P]NAADP in sea urchin egg homogenate; conditions: assay not specified
[3] = test system: NAADP receptor; type: biochemical, sea urchin; conditions: 9 min pretreatment at 1 nM or higher (subthreshold concentration)

Fold increase in EC50 [1]	loss of potency relative to NAADP [2]	potency for Ca2+ release compared to NAADP (fold less potent) [1]	Structure (SMILES)	further results
> 50,000 fold	–	–	CCCCc1cc[n+]([C@H]2O[C@@H](COP(=O)(O)OP(=O)(O)OC[C@H]3O[C@@H](n4cnc5c(N)ncnc54)[C@H](OP(=O)(O)O)[C@@H]3O)[C@H](O)[C@@H]2O)cc1C(=O)[O-] [compound 18, 4-n-butyl-NAADP]	–
–	–	10 to 100 fold	[N-]=[N+]=Nc1cc(C(=O)[O-])c[n+]([C@H]2O[C@@H](COP(=O)(O)OP(=O)(O)OC[C@H]3O[C@@H](n4cnc5c(N)ncnc54)[C@H](OP(=O)(O)O)[C@@H]3O)[C@H](O)[C@@H]2O)c1 [compound 24, 5-azido-NAADP]	–
–	20 fold	10 to 100 fold	CCc1cc(C(=O)[O-])c[n+]([C@H]2O[C@@H](COP(=O)(O)OP(=O)(O)OC[C@H]3O[C@@H](n4cnc5c(N)ncnc54)[C@H](OP(=O)(O)O)[C@@H]3O)[C@H](O)[C@@H]2O)c1 [compound 23, 5-ethyl-NAADP]	–
> 50,000 fold	–	–	Nc1ncnc2c1ncn2[C@@H]1O[C@H](COP(=O)(O)OP(=O)(O)OC[C@@H]2O[C@H]([n+]3ccc(-c4ccccc4)c(C(=O)[O-])c3)[C@@H](O)[C@H]2O)[C@@H](O)[C@H]1OP(=O)(O)O [compound 19, 4-phenyl-NAADP]	–
> 50,000 fold	–	–	Nc1ncnc2c1ncn2[C@@H]1O[C@H](COP(=O)(O)OP(=O)(O)OC[C@@H]2O[C@H]([n+]3cc(C(=O)[O-])cc(C(=O)O)c3)[C@@H](O)[C@H]2O)[C@@H](O)[C@H]1OP(=O)(O)O [compound 22, 5-carboxy-NAADP]	–

Structure (SMILES)	Fold increase in EC50 [1]	loss of potency relative to NAADP [2]	potency for Ca2+ release compared to NAADP (fold less potent) [1]	further results
Cc1cc[n+]([C@H]2O[C@@H](COP(=O)(O)OP(=O)(O)OC[C@H]3O[C@@H](n4cnc5c(N)ncnc54)[C@H](OP(=O)(O)O)[C@@H]3O)[C@H](O)[C@@H]2O)cc1C(=O)[O-] [compound 17, 4-methyl-NAADP]	–	100 to 200 fold	two hundred to two thousand fold less potent	potency for Ca2+ release compared with the 5-isomer 21 ([1]; Figure 1): significantly less potent
Nc1cc(C(=O)[O-])c[n+]([C@H]2O[C@@H](COP(=O)(O)OP(=O)(O)OC[C@H]3O[C@@H](n4cnc5c(N)ncnc54)[C@H](OP(=O)(O)O)[C@@H]3O)[C@H](O)[C@@H]2O)c1 [compound 20, 5-amino-NAADP]	–	only slightly less potent than is NAADP itself	approximately equipotent with NAADP	concentration as low as which calcium-ion release is induced [1]: 2 nM; amount of calcium release at saturating concentrations [1]: same amount of calcium release as did the full agonist NAADP
Cc1cc(C(=O)[O-])c[n+]([C@H]2O[C@@H](COP(=O)(O)OP(=O)(O)OC[C@H]3O[C@@H](n4cnc5c(N)ncnc54)[C@H](OP(=O)(O)O)[C@@H]3O)[C@H](O)[C@@H]2O)c1 [compound 21, 5-methyl-NAADP]	–	only slightly less potent than is NAADP itself	approximately equipotent with NAADP	receptor desensitization to 1 μM NAADP after pretreatment [3]: same characteristic receptor desensitization as does NAADP itself; concentration as low as which calcium-ion release is induced [1]: 2 nM; amount of calcium release at saturating concentrations [1]: same amount of calcium release as did the full agonist NAADP
Nc1cc[n+]([C@H]2O[C@@H](COP(=O)(O)OP(=O)(O)OC[C@H]3O[C@@H](n4cnc5c(N)ncnc54)[C@H](OP(=O)(O)O)[C@@H]3O)[C@H](O)[C@@H]2O)cc1C(=O)[O-] [compound 16, 4-amino-NAADP]	–	100 to 200 fold	two hundred to two thousand fold less potent	–
